In ChEMBL document CHEMBL1133958, “Derivatives of (2R,3R,4S)-2-aminomethylpyrrolidine-3,4-diol are selective alpha-mannosidase inhibitors” (Bioorg Med Chem Lett, 2001) one finds inhibition, IC50 and Ki data, which are given here for 7 compounds.

The nature of assay [1]: Percentage inhibition of Beta-galactosidase from Aspergillus oryzae at 1 mM; No inhibition.
In assay [2] the test system is Saccharomyces cerevisiae. Nature of the assay: Percentage inhibition of Alpha-glucosidase from Yeast (maltase) at 1 mM; […].
The target in assay [3] is T1, Glucoamylase 1 (Rhizopus oryzae) (UniProt P07683).
T1 sequence (whole entry): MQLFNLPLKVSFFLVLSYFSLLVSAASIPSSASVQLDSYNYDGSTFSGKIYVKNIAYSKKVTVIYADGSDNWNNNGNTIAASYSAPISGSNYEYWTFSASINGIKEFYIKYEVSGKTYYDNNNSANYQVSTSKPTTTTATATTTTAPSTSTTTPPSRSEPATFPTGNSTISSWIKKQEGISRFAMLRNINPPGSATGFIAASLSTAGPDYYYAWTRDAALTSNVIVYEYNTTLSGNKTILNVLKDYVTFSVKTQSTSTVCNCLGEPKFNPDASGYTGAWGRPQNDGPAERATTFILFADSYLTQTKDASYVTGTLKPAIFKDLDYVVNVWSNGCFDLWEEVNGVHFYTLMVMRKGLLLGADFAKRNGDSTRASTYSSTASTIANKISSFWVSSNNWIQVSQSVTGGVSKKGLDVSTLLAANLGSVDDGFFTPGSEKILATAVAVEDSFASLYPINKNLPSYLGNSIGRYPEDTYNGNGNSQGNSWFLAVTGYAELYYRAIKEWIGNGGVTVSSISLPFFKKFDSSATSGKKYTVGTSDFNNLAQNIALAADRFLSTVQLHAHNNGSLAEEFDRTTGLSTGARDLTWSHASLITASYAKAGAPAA
Nature of the assay: Percentage inhibition of Alpha-glucosidase from Rhizopus mold (amyloglucosidase) at 1 mM concentration; No inhibition. As to conditions: Rhizopus arrhizus.

For assay [4], the target named is T2, Alpha-glucosidase (Oryza sativa Japonica Group) (UniProt Q9LGC6).
T2 sequence (whole entry): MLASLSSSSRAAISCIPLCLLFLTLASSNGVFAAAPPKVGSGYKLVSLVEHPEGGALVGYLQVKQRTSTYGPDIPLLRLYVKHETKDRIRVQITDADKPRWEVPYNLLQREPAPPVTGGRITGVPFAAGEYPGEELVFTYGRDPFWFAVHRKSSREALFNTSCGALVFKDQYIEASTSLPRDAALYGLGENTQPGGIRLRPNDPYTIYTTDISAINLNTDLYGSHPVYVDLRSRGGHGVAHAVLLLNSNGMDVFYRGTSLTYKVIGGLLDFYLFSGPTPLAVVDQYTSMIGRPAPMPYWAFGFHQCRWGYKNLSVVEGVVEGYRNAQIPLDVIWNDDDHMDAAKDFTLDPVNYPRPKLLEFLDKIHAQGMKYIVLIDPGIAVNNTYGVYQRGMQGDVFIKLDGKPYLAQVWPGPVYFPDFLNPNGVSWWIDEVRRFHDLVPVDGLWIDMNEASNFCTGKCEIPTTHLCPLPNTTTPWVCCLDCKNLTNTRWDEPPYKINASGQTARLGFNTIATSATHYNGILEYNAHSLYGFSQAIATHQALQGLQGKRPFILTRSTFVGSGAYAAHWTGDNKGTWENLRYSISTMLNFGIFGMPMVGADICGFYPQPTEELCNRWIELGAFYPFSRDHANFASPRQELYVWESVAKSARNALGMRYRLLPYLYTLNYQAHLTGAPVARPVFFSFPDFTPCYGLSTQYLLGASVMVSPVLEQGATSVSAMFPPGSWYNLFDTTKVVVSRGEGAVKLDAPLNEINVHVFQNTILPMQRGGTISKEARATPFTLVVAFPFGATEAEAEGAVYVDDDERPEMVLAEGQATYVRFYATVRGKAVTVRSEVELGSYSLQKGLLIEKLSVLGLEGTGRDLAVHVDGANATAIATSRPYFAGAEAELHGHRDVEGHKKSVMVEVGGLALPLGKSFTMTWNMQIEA
Nature of the assay: Percentage inhibition of Alpha-glucosidase from Rice (maltase) at 1 mM; […].

In assay [5] the target is T3, Beta-galactosidase (Bos taurus) (UniProt Q58D55).
T3 sequence (whole entry): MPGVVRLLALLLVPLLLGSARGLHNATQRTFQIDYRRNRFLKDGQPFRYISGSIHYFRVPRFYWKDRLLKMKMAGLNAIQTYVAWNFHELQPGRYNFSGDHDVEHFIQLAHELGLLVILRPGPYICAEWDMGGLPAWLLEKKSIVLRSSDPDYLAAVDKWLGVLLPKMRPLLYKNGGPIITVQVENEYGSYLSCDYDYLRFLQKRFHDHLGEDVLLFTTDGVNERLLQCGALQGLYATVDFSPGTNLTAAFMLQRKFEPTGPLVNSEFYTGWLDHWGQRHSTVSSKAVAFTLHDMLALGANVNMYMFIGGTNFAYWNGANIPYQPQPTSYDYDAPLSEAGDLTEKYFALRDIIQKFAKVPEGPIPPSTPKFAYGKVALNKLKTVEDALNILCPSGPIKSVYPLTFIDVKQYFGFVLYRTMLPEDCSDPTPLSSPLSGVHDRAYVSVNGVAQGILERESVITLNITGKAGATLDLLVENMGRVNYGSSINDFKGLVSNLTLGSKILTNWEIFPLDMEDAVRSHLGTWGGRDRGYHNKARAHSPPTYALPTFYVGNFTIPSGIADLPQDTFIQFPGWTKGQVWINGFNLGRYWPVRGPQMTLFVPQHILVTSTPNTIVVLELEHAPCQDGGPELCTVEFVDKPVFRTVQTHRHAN
Nature of the assay: Percentage inhibition of Beta-galactosidase from Bovine liver at 1 mM concentration.

For assay [6], the target named is Glucoamylase (Aspergillus niger) (UniProt P69328). Nature of the assay: Percentage inhibition of Alpha-glucosidase from Aspergillus niger (amyloglucosidase) at 1 mM; No inhibition.
Glucoamylase (Aspergillus niger), sequence (P69328 whole entry): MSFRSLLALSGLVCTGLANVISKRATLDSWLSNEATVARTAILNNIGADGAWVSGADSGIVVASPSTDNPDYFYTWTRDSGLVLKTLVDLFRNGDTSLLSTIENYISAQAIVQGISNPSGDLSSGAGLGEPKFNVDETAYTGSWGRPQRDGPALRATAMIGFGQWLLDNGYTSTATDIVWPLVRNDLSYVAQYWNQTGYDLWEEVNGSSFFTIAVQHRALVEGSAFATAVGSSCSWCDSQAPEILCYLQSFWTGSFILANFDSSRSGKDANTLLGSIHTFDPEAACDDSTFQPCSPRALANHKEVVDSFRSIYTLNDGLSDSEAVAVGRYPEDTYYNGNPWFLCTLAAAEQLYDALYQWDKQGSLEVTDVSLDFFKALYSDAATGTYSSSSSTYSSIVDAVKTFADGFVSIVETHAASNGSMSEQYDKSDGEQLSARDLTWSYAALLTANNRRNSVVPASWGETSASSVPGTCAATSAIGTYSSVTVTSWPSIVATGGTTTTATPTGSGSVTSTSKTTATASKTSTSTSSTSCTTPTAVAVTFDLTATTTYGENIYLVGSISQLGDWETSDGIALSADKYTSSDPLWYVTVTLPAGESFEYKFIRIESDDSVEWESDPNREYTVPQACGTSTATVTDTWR
The subject of assay [7] is Saccharomyces cerevisiae. Nature of the assay: Percentage inhibition of Alpha-glucosidase from Baker yeast (isomaltase) at 1 mM; No inhibition.
In assay [8] the target is T4, Beta-galactosidase (Aspergillus niger) (UniProt P29853).
T4 sequence (whole entry): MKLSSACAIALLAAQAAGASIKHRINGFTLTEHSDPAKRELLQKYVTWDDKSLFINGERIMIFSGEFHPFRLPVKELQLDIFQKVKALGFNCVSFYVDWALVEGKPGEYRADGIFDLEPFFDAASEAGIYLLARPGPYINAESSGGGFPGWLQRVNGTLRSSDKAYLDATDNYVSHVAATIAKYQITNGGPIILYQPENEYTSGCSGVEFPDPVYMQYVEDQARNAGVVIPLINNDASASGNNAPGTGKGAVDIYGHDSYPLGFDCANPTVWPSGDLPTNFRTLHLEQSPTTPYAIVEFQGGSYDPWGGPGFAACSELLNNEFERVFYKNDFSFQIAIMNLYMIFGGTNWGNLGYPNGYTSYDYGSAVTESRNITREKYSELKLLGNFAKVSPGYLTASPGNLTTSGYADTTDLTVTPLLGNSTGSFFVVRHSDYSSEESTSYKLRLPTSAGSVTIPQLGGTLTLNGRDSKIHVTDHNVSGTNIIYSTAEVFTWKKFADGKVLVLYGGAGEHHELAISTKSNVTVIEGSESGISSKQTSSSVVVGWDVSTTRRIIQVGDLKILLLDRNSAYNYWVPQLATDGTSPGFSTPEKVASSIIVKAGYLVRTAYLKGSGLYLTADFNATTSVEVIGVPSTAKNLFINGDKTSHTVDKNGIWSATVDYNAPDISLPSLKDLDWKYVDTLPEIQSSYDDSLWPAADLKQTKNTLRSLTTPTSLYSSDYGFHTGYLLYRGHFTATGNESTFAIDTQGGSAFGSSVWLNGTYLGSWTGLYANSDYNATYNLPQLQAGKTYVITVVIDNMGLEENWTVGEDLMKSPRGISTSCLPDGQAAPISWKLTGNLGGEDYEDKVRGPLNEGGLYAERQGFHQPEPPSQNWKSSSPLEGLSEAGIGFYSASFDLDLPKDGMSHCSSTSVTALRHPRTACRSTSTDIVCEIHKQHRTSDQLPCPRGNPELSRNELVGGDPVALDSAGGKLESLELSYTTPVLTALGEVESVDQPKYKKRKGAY
Nature of the assay: Percentage inhibition of Beta-galactosidase from Aspergillus niger at 1 mM concentration; […].

Assay [9] addresses Beta-glucosidase A (Caldicellulosiruptor saccharolyticus) (UniProt P10482). Nature of the assay: Percentage inhibition of Beta-Glucosidase from Caldocellum saccharol. at 1 mM; No inhibition.
The target in assay [10] is Beta-galactosidase (Escherichia coli K-12) (UniProt P00722). Nature of the assay: Percentage inhibition of Beta-galactosidase from Escherichia coli at 1 mM concentration.
Beta-galactosidase (Escherichia coli K-12), sequence (P00722 whole entry): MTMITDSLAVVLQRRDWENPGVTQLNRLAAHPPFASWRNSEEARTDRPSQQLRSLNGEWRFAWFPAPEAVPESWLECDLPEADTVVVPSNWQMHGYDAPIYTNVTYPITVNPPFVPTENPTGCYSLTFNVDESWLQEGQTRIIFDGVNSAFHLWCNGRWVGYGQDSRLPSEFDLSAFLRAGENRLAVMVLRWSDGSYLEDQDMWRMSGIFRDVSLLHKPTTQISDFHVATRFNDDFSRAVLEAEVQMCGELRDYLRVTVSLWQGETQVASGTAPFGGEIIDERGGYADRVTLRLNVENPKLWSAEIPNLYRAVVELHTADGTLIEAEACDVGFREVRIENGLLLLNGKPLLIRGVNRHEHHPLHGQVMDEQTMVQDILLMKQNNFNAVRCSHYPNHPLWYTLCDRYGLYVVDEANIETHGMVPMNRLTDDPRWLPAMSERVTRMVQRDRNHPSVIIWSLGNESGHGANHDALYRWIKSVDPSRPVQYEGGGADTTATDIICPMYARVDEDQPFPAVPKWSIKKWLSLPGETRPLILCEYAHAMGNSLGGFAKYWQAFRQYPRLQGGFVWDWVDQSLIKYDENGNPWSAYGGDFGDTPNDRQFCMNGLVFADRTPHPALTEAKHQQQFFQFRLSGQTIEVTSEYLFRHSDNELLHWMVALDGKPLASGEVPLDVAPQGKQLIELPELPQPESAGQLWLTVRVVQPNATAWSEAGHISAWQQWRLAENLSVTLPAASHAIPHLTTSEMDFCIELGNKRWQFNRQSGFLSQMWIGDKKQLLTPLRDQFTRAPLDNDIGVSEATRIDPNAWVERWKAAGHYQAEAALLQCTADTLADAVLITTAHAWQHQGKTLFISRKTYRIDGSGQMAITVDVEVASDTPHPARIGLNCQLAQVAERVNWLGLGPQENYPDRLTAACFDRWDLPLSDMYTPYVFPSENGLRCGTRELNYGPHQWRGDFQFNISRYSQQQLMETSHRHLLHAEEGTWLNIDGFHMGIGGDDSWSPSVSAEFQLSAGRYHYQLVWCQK
Assay [11] is described as follows: Percentage inhibition of Beta-galactosidase from Jack bean at 1 mM concentration; No inhibition. To be noted: Canavalia ensiformis.
Assay [12] deals with Beta-galactosidase (Escherichia coli K-12) (UniProt P00722). Nature of the assay: Percentage inhibition of Beta-galactosidase from Escherichia coli at 1 mM concentration; No inhibition.
Assay [13] deals with Beta-glucosidase A (Caldicellulosiruptor saccharolyticus) (UniProt P10482). Nature of the assay: Percentage inhibition of Beta-Glucosidase from Caldocellum saccharol. at 1 mM.
Beta-glucosidase A (Caldicellulosiruptor saccharolyticus), sequence (P10482 whole entry): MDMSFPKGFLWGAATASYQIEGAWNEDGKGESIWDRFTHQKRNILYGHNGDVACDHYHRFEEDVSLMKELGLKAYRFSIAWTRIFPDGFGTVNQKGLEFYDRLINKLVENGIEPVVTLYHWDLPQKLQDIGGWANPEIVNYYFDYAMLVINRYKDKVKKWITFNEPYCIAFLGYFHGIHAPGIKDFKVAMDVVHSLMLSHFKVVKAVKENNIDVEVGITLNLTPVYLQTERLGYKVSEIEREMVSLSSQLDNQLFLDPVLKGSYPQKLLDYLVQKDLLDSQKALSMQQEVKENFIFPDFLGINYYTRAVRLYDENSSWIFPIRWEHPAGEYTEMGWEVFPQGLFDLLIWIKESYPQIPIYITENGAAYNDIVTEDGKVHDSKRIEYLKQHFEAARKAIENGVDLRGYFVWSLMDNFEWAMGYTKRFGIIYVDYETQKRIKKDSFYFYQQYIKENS
The subject of assay [14] is Saccharomyces cerevisiae. Nature of the assay: Percentage inhibition of Alpha-glucosidase from Baker yeast (isomaltase) at 1 mM.
For assay [15], the target named is T3, Beta-galactosidase (Bos taurus). Nature of the assay: Percentage inhibition of Beta-galactosidase from Bovine liver at 1 mM concentration; No inhibition.
The subject of assay [16] is Alpha-mannosidase (Prunus dulcis). Nature of the assay: Percentage inhibition of Alpha-mannosidase from Almond at 1 mM.
Assay [17] in a line: Inhibitory activity towards Alpha-glucosidase from Baker yeast (isomaltase). The arrangement: species or system Saccharomyces cerevisiae.
Assay [18] relates to Saccharomyces cerevisiae. Nature of the assay: Percentage inhibition of Alpha-glucosidase from Yeast (maltase) at 1 mM.
In assay [19] the target is T4, Beta-galactosidase (Aspergillus niger). Nature of the assay: Percentage inhibition of Beta-galactosidase from Aspergillus niger at 1 mM concentration.

Structures are written as SMILES. The source made the active and inactive calls. The rule behind the calls is not given here.

A word on the inhibition: it is the share of the control response that was lost under treatment. As for `OC1CNC(CNCc2ccccc2)C1O` (stereo not drawn), the inhibition entry (in [1]; in the assay with Saccharomyces cerevisiae [2]; in assay [3]; in assay [4]; in assay [6]; in the assay with Saccharomyces cerevisiae [7]) was “inactive” in each case. In addition, the inhibition entry in assay [8] and in assay [9] was “inactive” throughout. The inhibition in assay [5] was 26%; in assay [10], 24%.
On to `OCC(O)[C@H]1NC[C@H](O)[C@@H]1O` (stereo partly drawn), for which the inhibition entry (in [1]; with Saccharomyces cerevisiae [2]; in assay [11]; in [12]; in assay [3]; in assay [4]) was “inactive” in each case. For the same compound, the inhibition entry (in [6]; in the assay on Saccharomyces cerevisiae [7]; in [8]) was “inactive” throughout. Also, the inhibition was determined as 40% in [13] and 32% in [5].
For the compound `CC(=O)N(Cc1ccccc1)CC1NCC(O)C1O` (stereo not drawn), the figures for the inhibition (with Saccharomyces cerevisiae [14]; in [13]) were 33% and 43%, respectively. Further, the inhibition result (in assay [1]; with Saccharomyces cerevisiae [2]; in assay [11]; in assay [12]; in [3]; in assay [4]) was “inactive” each time. Also, the inhibition entry in assay [15], in [6] and in [8] was “inactive” throughout.
For the compound `OC1CNC(CNCc2cccs2)C1O` (stereo not drawn), the inhibition in the assay on Saccharomyces cerevisiae [14] worked out at 23%; in assay [16], 68%; in assay [13] it was 38%. The inhibition entry (in assay [1]; in the assay with Saccharomyces cerevisiae [2]; in assay [12]; in assay [3]; in assay [4]; in assay [15]) was “inactive” each time. The inhibition result in [6] and in [8] was “inactive” each time.
As for `OC1CNC(CCNc2ccccc2)C1O` (stereo not drawn), the inhibition entry (in assay [1]; in the assay with Saccharomyces cerevisiae [2]; in [11]; in assay [12]; in assay [3]; in assay [4]) was “inactive” throughout. For the same compound, the inhibition result (in assay [15]; in assay [6]; in the assay with Saccharomyces cerevisiae [7]; in assay [8]; in assay [9]) was “inactive” throughout.
The term IC50 denotes the concentration that gives 50% inhibition. One may read the Ki as the equilibrium dissociation constant of an inhibitor or competing ligand from its target. Higher therefore signals a looser hold on the target. Compound `OC1CNC(CNC2CCCC2)C1O` (stereo not drawn) had an IC50 in [17] of 170 µM. Moreover, the Ki in [17] stood at 71 µM. The inhibition in the assay on Saccharomyces cerevisiae [14] stood at 92%; in the assay on Saccharomyces cerevisiae [18], 30%; in [19], 26%; in assay [16], 53%; in [13], 29%. The inhibition entry in [1], in [12], in assay [3], in assay [4], in [15] and in assay [6] was “inactive” throughout.
`C[C@@H](NCC1NCC(O)C1O)c1ccccc1` (stereo partly drawn): the inhibition in the assay on Saccharomyces cerevisiae [14] is 34%; in assay [16], 48%; in [13] it was 49%; in assay [10], 34%. For the same compound, the inhibition entry (in assay [1]; in the assay on Saccharomyces cerevisiae [2]; in assay [3]; in assay [4]; in [15]; in assay [6]) was “inactive” in each case. Moreover, the inhibition entry in [8] is “inactive”.
